# Tests used:
# Format in all cases: binding
# P2RY12 = target: T1, P2RY12 (Homo sapiens, UniProt Q9H244); test: NanoBRET screen HiBiT-P2RY12 in HEK293; settings: P2RY12
# T1 construct: purchased Promega (in-house HiBiT-GPCR construct library, NanoBRET)
# Method: (§1) Each tracer candidate was screened across the entire library of HiBiT-GPCR constructs using NanoBRET as the detection modality. As depicted in Figure 4A, the specificity of interactions was evaluated through decrease in BRET due to competitive displacement of a bound tracer by excess parental compound. Each tracer was analyzed for binding to each HiBiT-GPCR fusion in the absence and in the presence of competing parental compound. Briefly, HEK293 cells were transfected with HiBiT-GPCR constructs diluted into promoterless DNA to reduce expression and maximize translocation to the cell surface. Each tracer candidate was then screened at concentrations of 1 μM and 0.1 μM across cells expressing these fusions. Cells were treated for 1.5 h with tracer either alone or in the presence of 20 μM competing parental compound (i.e., control). BRET was measured upon addition of purified LgBiT and subsequent complementation with HiBiT genetically fused to a GPCR. The specificity of interactions was assessed through a decrease in BRET signal due to competitive displacement of the bound tracer. To further gauge the robustness of these interactions, the fold response over the control (i.e., BRETtracer/BRETcontrol) was calculated. We chose a 1.5-fold response, which translates to ≥7-fold signal over noise as the minimal threshold required to score an interaction as positive. […]. Below we highlight the screening results obtained for our exemplary fluorescent tracers based on Clozapine, Amitriptyline and AZD1283.
# (§2) HiBiT-GPCR DNA constructs were diluted in 10 mM Tris pH 8 to a final concentration of 0.01 μg/μL, arrayed in 96-well plates and stored at −20 °C. For transfection, HEK293 cells were suspended in Opti-MEM (without phenol red) supplemented with 2% fetal bovine serum (Seradigm) and 100 units/mL penicillin–streptomycin (Gibco) at a final concentration of 220,000 cells/mL and dispensed into white 96-well plates at 90 μL/well. Subsequent transfections and screens were carried using an Agilent Bravo Automated Liquid Handling Platform. First, the 96-well HiBiT DNA arrays were diluted 25-fold in Opti-MEM (without serum or phenol red) to a final concentration of 0.0004 μg/μL and 20 μL of the diluted DNAs were transferred into new 96-well plates. Next, promoterless carrier DNA (1 μg/μL) was diluted 25-fold (0.04 μg/μL) and then dispensed into the diluted arrays at 20 μL/well. Following brief mixing, Viafect transfection reagent (Promega) diluted 16-fold into Opti-MEM was dispensed into the plates at 40 μL/well. After mixing by pipetting, plates were incubated for 10 min on the pipetting station deck. The DNA-transfection reagent complexes were then added to plates containing cells. To facilitate the screen, 10 μL of DNA-transfection reagent complexes were added in duplicates to the top 4 and bottom 4 rows, resulting in two identical 48-well arrays per plate. Plates with transfected cells were incubated for 18–20 h at 37 °C/5% CO2. A screen of each tracer across the entire library using two different concentrations requires duplicate plates of transfected cells. Depending on the number of tracers being screened, transfections can be scaled up using the same ratios. The next day, for each tracer, four 20× screening solutions in tracer dilution buffer (Promega) were prepared: two duplicates at final concentration of 20 μM and two duplicates at a final concentration of 2 μM. A competing unmodified compound was added to one of each duplicate at a final concentration of 400 μM. The four resulting solutions were diluted 4-fold in Opti-MEM without serum or phenol red to generate 5× solutions (5 µM and 0.5 µM tracer +/− 100 μM competing compound). To screen the library, a BioTek MultiFlo FX liquid dispenser was used to dispense 22.5 µL of tracer solution to the top 4 rows and 22.5 µL tracer + competing compound solution to the 4 bottom rows. Plates were briefly mixed on an orbital shaker and incubated for 1.5 h at room temperature. […]
# NPY2R = target: T2, NPY2R (Homo sapiens, UniProt P49146); test: NanoBRET screen HiBiT-NPY2R in HEK293; settings: NPY2R
# T2 construct: purchased Promega (in-house HiBiT-GPCR construct library, NanoBRET)
# T2 sequence (P49146 1-381): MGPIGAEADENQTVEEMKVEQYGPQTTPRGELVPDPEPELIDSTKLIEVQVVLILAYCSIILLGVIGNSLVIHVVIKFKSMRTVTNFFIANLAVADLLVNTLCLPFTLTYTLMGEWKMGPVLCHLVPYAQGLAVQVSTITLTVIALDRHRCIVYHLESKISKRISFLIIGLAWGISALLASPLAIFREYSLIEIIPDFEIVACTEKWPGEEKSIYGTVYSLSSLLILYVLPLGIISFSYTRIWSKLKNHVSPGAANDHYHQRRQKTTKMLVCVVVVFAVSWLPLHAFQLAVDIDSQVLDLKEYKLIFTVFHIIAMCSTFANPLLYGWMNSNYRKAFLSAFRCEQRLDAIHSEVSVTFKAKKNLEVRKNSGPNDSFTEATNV
# Method: as §1, §2
# PTGER3 = target: T3, PTGER3 (Homo sapiens, UniProt P43115); test: NanoBRET screen HiBiT-PTGER3 in HEK293; settings: PTGER3
# T3 construct: purchased Promega (in-house HiBiT-GPCR construct library, NanoBRET)
# T3 sequence (P43115 1-390): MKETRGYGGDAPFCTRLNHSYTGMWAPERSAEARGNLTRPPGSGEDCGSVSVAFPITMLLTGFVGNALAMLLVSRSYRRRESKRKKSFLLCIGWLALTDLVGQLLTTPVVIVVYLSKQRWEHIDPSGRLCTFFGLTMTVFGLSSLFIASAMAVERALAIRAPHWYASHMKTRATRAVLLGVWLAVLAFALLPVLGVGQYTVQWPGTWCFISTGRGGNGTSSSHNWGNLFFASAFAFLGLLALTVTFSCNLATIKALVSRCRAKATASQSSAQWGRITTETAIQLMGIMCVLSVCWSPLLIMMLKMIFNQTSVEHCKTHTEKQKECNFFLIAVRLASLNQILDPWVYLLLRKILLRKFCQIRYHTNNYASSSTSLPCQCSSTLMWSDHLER
# Method: as §1, §2
# MTNR1B = target: T4, MTNR1B (Homo sapiens, UniProt P49286); test: NanoBRET screen HiBiT-MTNR1B in HEK293; settings: MTNR1B
# T4 construct: purchased Promega (in-house HiBiT-GPCR construct library, NanoBRET)
# T4 sequence (P49286 1-362): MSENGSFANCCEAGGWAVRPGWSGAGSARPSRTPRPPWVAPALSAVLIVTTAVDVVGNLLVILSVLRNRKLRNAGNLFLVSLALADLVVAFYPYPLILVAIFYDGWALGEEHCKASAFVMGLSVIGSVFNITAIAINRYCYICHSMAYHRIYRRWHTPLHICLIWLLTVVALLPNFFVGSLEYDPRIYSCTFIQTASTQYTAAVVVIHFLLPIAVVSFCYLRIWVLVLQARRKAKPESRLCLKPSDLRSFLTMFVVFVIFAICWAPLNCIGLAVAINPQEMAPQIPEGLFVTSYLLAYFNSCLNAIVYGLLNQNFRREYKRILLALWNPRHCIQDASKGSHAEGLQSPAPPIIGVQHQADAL
# Method: as §1, §2
# T1 sequence (Q9H244 whole entry, one chain of several): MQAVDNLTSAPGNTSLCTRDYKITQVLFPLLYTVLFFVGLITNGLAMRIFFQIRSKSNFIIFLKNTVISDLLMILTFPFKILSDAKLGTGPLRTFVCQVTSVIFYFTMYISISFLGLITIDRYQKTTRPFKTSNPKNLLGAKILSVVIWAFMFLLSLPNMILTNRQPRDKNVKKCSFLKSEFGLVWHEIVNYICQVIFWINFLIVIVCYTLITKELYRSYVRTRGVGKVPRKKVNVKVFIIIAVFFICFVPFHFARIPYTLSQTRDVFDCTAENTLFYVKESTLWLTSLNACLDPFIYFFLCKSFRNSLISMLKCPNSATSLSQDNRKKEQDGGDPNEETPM
SMILES,NanoBRET Fold Response (P2RY12; tracer 0.1μM),NanoBRET Fold Response (P2RY12; tracer 1μM),NanoBRET Fold Response (NPY2R; tracer 0.1μM),NanoBRET Fold Response (NPY2R; tracer 1μM),NanoBRET Fold Response (PTGER3; tracer 0.1μM),NanoBRET Fold Response (PTGER3; tracer 1μM),NanoBRET Fold Response (MTNR1B; tracer 0.1μM),NanoBRET Fold Response (MTNR1B; tracer 1μM),NanoBRET Fold Response (P2RY12; 0.1μM),NanoBRET Fold Response (P2RY12; 1μM),NanoBRET Fold Response (NPY2R; 0.1μM),NanoBRET Fold Response (NPY2R; 1μM),NanoBRET Fold Response (PTGER3; 0.1μM),NanoBRET Fold Response (PTGER3; 1μM),NanoBRET Fold Response (MTNR1B; 0.1μM),NanoBRET Fold Response (MTNR1B; 1μM)
O=C(CCOCCOCCOCCOCCNC(=O)CCc1ccc2n1[B-](F)(F)[N+]1=C(c3ccc[nH]3)C=CC1=C2)NCCCN1CCN(C2=Nc3ccccc3Oc3ccc(Cl)cc32)CC1 [Loxapine-a-2-NB590],0.99,0.84,1.02,1.17,0.98,0.98,0.44,1.04,–,–,–,–,–,–,–,–
COc1ccccc1N1CCN(CCCCN2C(=O)c3ccc(CNC(=O)CCOCCNC(=O)c4ccc(CNC(=O)CCc5ccc6n5[B-](F)(F)[N+]5=C(c7ccc[nH]7)C=CC5=C6)cc4)cc3C2=O)CC1 [NAN-190-3-NB590],1.12,1.10,1.05,1.07,0.99,0.64,1.20,1.15,–,–,–,–,–,–,–,–
O=C(CCc1ccc2n1[B-](F)(F)[N+]1=C(c3ccc[nH]3)C=CC1=C2)NCc1ccc(C(=O)NCCOCCC(=O)N[C@@H]2CC[C@@]3(O)[C@H]4Cc5ccc(O)c6c5[C@@]3(CCN4CC3CC3)[C@H]2O6)cc1 [Naltrexone-3-NB590],1.30,0.88,1.05,0.96,0.94,0.79,0.94,0.66,–,–,–,–,–,–,–,–
Cc1cc2c(s1)Nc1ccccc1N=C2N1CCN(CCCNC(=O)CCOCCOCCOCCOCCNC(=O)CCc2ccc3n2[B-](F)(F)[N+]2=C(c4ccc[nH]4)C=CC2=C3)CC1 [Olanzapine-a-2-NB590],0.98,0.97,1.00,0.99,1.00,0.95,0.96,0.94,–,–,–,–,–,–,–,–
O=C(CCc1ccc2n1[B-](F)(F)[N+]1=C(c3ccc[nH]3)C=CC1=C2)NCc1ccc(C(=O)NCCOCCOCCNCC(O)COc2cccc3ccccc23)cc1 (centres unmarked) [Propranolol-3-NB590],–,–,–,–,–,–,–,–,1.02,0.94,1.02,1.00,1.04,1.08,0.96,0.98
O=C(CCc1ccc2n1[B-](F)(F)[N+]1=C(c3ccc[nH]3)C=CC1=C2)NCCOCCOCCNC(=O)OCCOCCN1CCN(C2=Nc3ccccc3Sc3ccccc32)CC1 [Quetiapine-a-2-NB590],0.99,0.92,0.99,0.85,0.97,1.04,1.11,0.92,–,–,–,–,–,–,–,–
Cc1nc2n(c(=O)c1CCN1CCC(c3noc4cc(F)ccc34)CC1)CCCC2OC(=O)NCCOCCOCCOCCOCCNC(=O)CCc1ccc2n1[B-](F)(F)[N+]1=C(c3ccc[nH]3)C=CC1=C2 (centres unmarked) [Risperidone-2-NB590],1.05,0.95,1.07,0.98,0.94,1.12,0.99,0.92,–,–,–,–,–,–,–,–
CC(C)N(CC[C@H](c1ccccc1)c1cc(CCNC(=O)CCOCCOCCOCCOCCNC(=O)CCc2ccc3n2[B-](F)(F)[N+]2=C(c4ccc[nH]4)C=CC2=C3)ccc1O)C(C)C [Tolterodine-2-NB590],0.93,0.95,1.01,0.93,1.14,0.99,0.95,0.79,–,–,–,–,–,–,–,–
CC(C)N(CC[C@H](c1ccccc1)c1cc(CCNC(=O)c2ccc(CNC(=O)CCc3ccc4n3[B-](F)(F)[N+]3=C(c5ccc[nH]5)C=CC3=C4)cc2)ccc1O)C(C)C [Tolterodine-BZ-NB590],1.08,0.91,0.90,1.04,0.99,1.07,0.97,1.04,–,–,–,–,–,–,–,–
CCCn1c(=O)c2[nH]c(-c3ccc(OCC(=O)NCCNC(=O)CCOCCNC(=O)c4ccc(CNC(=O)CCc5ccc6n5[B-](F)(F)[N+]5=C(c7ccc[nH]7)C=CC5=C6)cc4)cc3)nc2n(CCC)c1=O [XAC-3-NB590],0.91,1.04,0.93,1.03,0.97,1.05,1.07,1.05,–,–,–,–,–,–,–,–
